Laboratory results from US10118935B2, “Melampomagnolide B dimers” (priority 2014, dated 2018).
Like-named read-outs stand apart in the source and are kept apart here.

What was measured:
A549/ATCC = experiment: NCI 60 cell line five dose, Non-Small Cell Lung Cancer
NCI-H23 = experiment: as above
NCI/ADR-RES = experiment: NCI 60 cell line five dose, Ovarian Cancer; conditions: NCI/ADR-
SN12C = experiment: NCI 60 cell line five dose, Renal Cancer
786-0 = experiment: NCI 60 cell line five dose, Renal Cancer
SK-MEL-2 = experiment: NCI 60 cell line five dose, Melanoma
MOLT-4 = experiment: NCI 60 cell line five dose, Leukemia
HOP-92 = experiment: NCI 60 cell line five dose, Non-Small Cell Lung Cancer
DU-145 = experiment: NCI 60 cell line five dose, Prostate Cancer
OVCAR-8 = experiment: NCI 60 cell line five dose, Ovarian Cancer
T-47D = experiment: NCI 60 cell line five dose, Breast Cancer
HS 578T = experiment: NCI 60 cell line five dose, Breast Cancer; conditions: for Percent Growth: HS578T
OVCAR-3 = experiment: NCI 60 cell line five dose, Ovarian Cancer
RXF 393 = experiment: NCI 60 cell line five dose, Renal Cancer
TK-10 = experiment: NCI 60 cell line five dose, Renal Cancer
M14 = experiment: NCI 60 cell line five dose, Melanoma
LOX IMVI = experiment: NCI 60 cell line five dose, Melanoma
NCI-H226 = experiment: NCI 60 cell line five dose, Non-Small Cell Lung Cancer
MDA-MB-468 = experiment: NCI 60 cell line five dose, Breast Cancer
MCF7 = experiment: NCI 60 cell line five dose, Breast Cancer
SF-295 = experiment: NCI 60 cell line five dose, CNS Cancer

## C=C1C(=O)O[C@H]2[C@H]1CC/C(COC(=O)NCCCCNC(=O)OC/C1=C/CC[C@@]3(C)O[C@H]3[C@H]3OC(=O)C(=C)[C@@H]3CC1)=C\CC[C@@]1(C)O[C@@H]21 [JVM 3-54, bis(((1aR,7aS,10aS,10bS,E)-1a-Methyl-8-methylene-9-oxo-1a,2,3,6,7,7a,8,9,10a,10b-decahydrooxireno[2′,3′:9,10]cyclodeca[1,2-b]furan-5-yl)methyl)butane-1,4-diyldicarbamate]
A549/ATCC
  GI50: 8.02 µM
  TGI: 23.1 µM
A549/ATCC; Log10 Concentration −4.0
  Percent Growth: −79%
A549/ATCC; Log10 Concentration −5.0
  Percent Growth: 45%
A549/ATCC; Log10 Concentration −6.0
  Percent Growth: 99%
A549/ATCC; Log10 Concentration −7.0
  Percent Growth: 99%
A549/ATCC; Log10 Concentration −8.0
  Percent Growth: 100%
A549/ATCC; read-out: LC50
  CC50: 58.7 µM
NCI-H23
  GI50: 2.18 µM
  TGI: 5.54 µM
NCI-H23; Log10 Concentration −4.0
  Percent Growth: −70%
NCI-H23; Log10 Concentration −5.0
  Percent Growth: 32%
NCI-H23; Log10 Concentration −6.0
  Percent Growth: 92%
NCI-H23; Log10 Concentration −7.0
  Percent Growth: 95%
NCI-H23; Log10 Concentration −8.0
  Percent Growth: 95%
NCI-H23; read-out: LC50
  CC50: 30.4 µM
NCI/ADR-RES
  GI50: 37.7 µM
NCI/ADR-RES; Log10 Concentration −4.0
  Percent Growth: 23%
NCI/ADR-RES; Log10 Concentration −5.0
  Percent Growth: 86%
NCI/ADR-RES; Log10 Concentration −6.0
  Percent Growth: 99%
NCI/ADR-RES; Log10 Concentration −7.0
  Percent Growth: 90%
NCI/ADR-RES; Log10 Concentration −8.0
  Percent Growth: 94%
NCI/ADR-RES; read-out: LC50
  CC50: > 100 µM
SN12C
  GI50: 2.75 µM
  TGI: 10.1 µM
SN12C; Log10 Concentration −4.0
  Percent Growth: −84%
SN12C; Log10 Concentration −6.0
  Percent Growth: 89%
SN12C; Log10 Concentration −7.0
  Percent Growth: 101%
SN12C; Log10 Concentration −8.0
  Percent Growth: 100%
SN12C; read-out: LC50
  CC50: 39.5 µM
786-0
  GI50: 1.99 µM
  TGI: 4.25 µM
786-0; Log10 Concentration −4.0
  Percent Growth: −91%
786-0; Log10 Concentration −5.0
  Percent Growth: −56%
786-0; Log10 Concentration −6.0
  Percent Growth: 95%
786-0; Log10 Concentration −7.0
  Percent Growth: 91%
786-0; Log10 Concentration −8.0
  Percent Growth: 98%
786-0; read-out: LC50
  CC50: 9.11 µM
SK-MEL-2
  GI50: 1.77 µM
  TGI: 4.89 µM
SK-MEL-2; Log10 Concentration −4.0
  Percent Growth: −67%
SK-MEL-2; Log10 Concentration −5.0
  Percent Growth: −35%
SK-MEL-2; Log10 Concentration −6.0
  Percent Growth: 78%
SK-MEL-2; Log10 Concentration −7.0
  Percent Growth: 89%
SK-MEL-2; Log10 Concentration −8.0
  Percent Growth: 101%
SK-MEL-2; read-out: LC50
  CC50: 29.3 µM
MOLT-4
  GI50: 1.47 µM
  TGI: 4.15 µM
MOLT-4; Log10 Concentration −4.0
  Percent Growth: −41%
MOLT-4; Log10 Concentration −5.0
  Percent Growth: −42%
MOLT-4; Log10 Concentration −6.0
  Percent Growth: 68%
MOLT-4; Log10 Concentration −7.0
  Percent Growth: 98%
MOLT-4; Log10 Concentration −8.0
  Percent Growth: 98%
MOLT-4; read-out: LC50
  CC50: > 100 µM
HOP-92
  GI50: 0.287 µM
  TGI: 1.06 µM
HOP-92; Log10 Concentration −4.0
  Percent Growth: −92%
HOP-92; Log10 Concentration −5.0
  Percent Growth: −76%
HOP-92; Log10 Concentration −6.0
  Percent Growth: 2%
HOP-92; Log10 Concentration −7.0
  Percent Growth: 91%
HOP-92; Log10 Concentration −8.0
  Percent Growth: 91%
DU-145
  GI50: 3.21 µM
  TGI: 10.5 µM
DU-145; Log10 Concentration −4.0
  Percent Growth: −96%
DU-145; Log10 Concentration −5.0
  Percent Growth: 2%
DU-145; Log10 Concentration −6.0
  Percent Growth: 99%
DU-145; Log10 Concentration −7.0
  Percent Growth: 98%
DU-145; Log10 Concentration −8.0
  Percent Growth: 99%
DU-145; read-out: LC50
  CC50: 33.8 µM
OVCAR-8
  GI50: 2.18 µM
  TGI: 8.26 µM
OVCAR-8; Log10 Concentration −4.0
  Percent Growth: −78%
OVCAR-8; Log10 Concentration −5.0
  Percent Growth: −7%
OVCAR-8; Log10 Concentration −6.0
  Percent Growth: 79%
OVCAR-8; Log10 Concentration −7.0
  Percent Growth: 99%
OVCAR-8; Log10 Concentration −8.0
  Percent Growth: 99%
OVCAR-8; read-out: LC50
  CC50: 40.2 µM
T-47D
  GI50: 1.51 µM
  TGI: 4.17 µM
T-47D; Log10 Concentration −4.0
  Percent Growth: −32%
T-47D; Log10 Concentration −5.0
  Percent Growth: −43%
T-47D; Log10 Concentration −6.0
  Percent Growth: 70%
T-47D; Log10 Concentration −7.0
  Percent Growth: 93%
T-47D; Log10 Concentration −8.0
  Percent Growth: 95%
T-47D; read-out: LC50
  CC50: > 100 µM
HS 578T; HS 578T
  GI50: 2.54 µM
  TGI: 8.14 µM
HS 578T; Log10 Concentration −4.0
  Percent Growth: −27%
HS 578T; Log10 Concentration −5.0
  Percent Growth: −9%
HS 578T; Log10 Concentration −6.0
  Percent Growth: 90%
HS 578T; Log10 Concentration −7.0
  Percent Growth: 92%
HS 578T; Log10 Concentration −8.0
  Percent Growth: 90%
OVCAR-3
  GI50: 0.693 µM
  TGI: 2.01 µM
OVCAR-3; Log10 Concentration −4.0
  Percent Growth: −96%
OVCAR-3; Log10 Concentration −5.0
  Percent Growth: −93%
OVCAR-3; Log10 Concentration −6.0
  Percent Growth: 40%
OVCAR-3; Log10 Concentration −7.0
  Percent Growth: 101%
OVCAR-3; Log10 Concentration −8.0
  Percent Growth: 101%
OVCAR-3; read-out: LC50
  CC50: 4.76 µM
RXF 393
  GI50: 1.44 µM
  TGI: 3.36 µM
RXF 393; Log10 Concentration −4.0
  Percent Growth: −100%
RXF 393; Log10 Concentration −5.0
  Percent Growth: −64%
RXF 393; Log10 Concentration −6.0
  Percent Growth: 71%
RXF 393; Log10 Concentration −7.0
  Percent Growth: 95%
RXF 393; Log10 Concentration −8.0
  Percent Growth: 100%
RXF 393; read-out: LC50
  CC50: 7.84 µM
TK-10
  GI50: 1.61 µM
  TGI: 4.12 µM
TK-10; Log10 Concentration −4.0
  Percent Growth: −99%
TK-10; Log10 Concentration −5.0
  Percent Growth: −47%
TK-10; Log10 Concentration −6.0
  Percent Growth: 75%
TK-10; Log10 Concentration −7.0
  Percent Growth: 93%
TK-10; Log10 Concentration −8.0
  Percent Growth: 97%
TK-10; read-out: LC50
  CC50: 11.3 µM
M14
  GI50: 1.97 µM
  TGI: 4.82 µM
M14; Log10 Concentration −4.0
  Percent Growth: −84%
M14; Log10 Concentration −5.0
  Percent Growth: −41%
M14; Log10 Concentration −6.0
  Percent Growth: 88%
M14; Log10 Concentration −7.0
  Percent Growth: 88%
M14; Log10 Concentration −8.0
  Percent Growth: 94%
M14; read-out: LC50
  CC50: 16.3 µM
HL-60(TB)
  GI50: 0.256 µM
  TGI: 1.08 µM
HL-60(TB); Log10 Concentration −4.0
  Percent Growth: −38%
HL-60(TB); Log10 Concentration −5.0
  Percent Growth: −41%
HL-60(TB); Log10 Concentration −6.0
  Percent Growth: 1%
HL-60(TB); Log10 Concentration −7.0
  Percent Growth: 84%
HL-60(TB); Log10 Concentration −8.0
  Percent Growth: 962%
HL-60(TB); read-out: LC50
  CC50: > 100 µM
LOX IMVI
  GI50: 0.519 µM
  TGI: 1.92 µM
LOX IMVI; Log10 Concentration −4.0
  Percent Growth: −74%
LOX IMVI; Log10 Concentration −5.0
  Percent Growth: −84%
LOX IMVI; Log10 Concentration −6.0
  Percent Growth: 33%
LOX IMVI; Log10 Concentration −7.0
  Percent Growth: 93%
LOX IMVI; Log10 Concentration −8.0
  Percent Growth: 93%
LOX IMVI; read-out: LC50
  CC50: 5.15 µM
NCI-H226
  GI50: 11.4 µM
  TGI: 30.5 µM
NCI-H226; Log10 Concentration −4.0
  Percent Growth: −60%
NCI-H226; Log10 Concentration −5.0
  Percent Growth: 57%
NCI-H226; Log10 Concentration −6.0
  Percent Growth: 100%
NCI-H226; Log10 Concentration −7.0
  Percent Growth: 97%
NCI-H226; Log10 Concentration −8.0
  Percent Growth: 98%
NCI-H226; read-out: LC50
  CC50: 81.6 µM
MDA-MB-468
  GI50: 0.426 µM
  TGI: 2 µM
MDA-MB-468; Log10 Concentration −4.0
  Percent Growth: −69%
MDA-MB-468; Log10 Concentration −5.0
  Percent Growth: −59%
MDA-MB-468; Log10 Concentration −6.0
  Percent Growth: 26%
MDA-MB-468; Log10 Concentration −7.0
  Percent Growth: 91%
MDA-MB-468; Log10 Concentration −8.0
  Percent Growth: 92%
MDA-MB-468; read-out: LC50
  CC50: 7.76 µM
MCF7
  TGI: 1.8 µM
MCF7; Log10 Concentration −4.0
  Percent Growth: −42%
MCF7; Log10 Concentration −5.0
  Percent Growth: −69%
MCF7; Log10 Concentration −6.0
  Percent Growth: 24%
MCF7; Log10 Concentration −7.0
  Percent Growth: 87%
MCF7; Log10 Concentration −8.0
  Percent Growth: 92%
SF-295
  GI50: 13 µM
  TGI: 27.4 µM
SF-295; Log10 Concentration −4.0
  Percent Growth: −87%
SF-295; Log10 Concentration −5.0
  Percent Growth: 68%
SF-295; Log10 Concentration −6.0
  Percent Growth: 98%
SF-295; Log10 Concentration −7.0
  Percent Growth: 89%
SF-295; Log10 Concentration −8.0
  Percent Growth: 92%
SF-295; read-out: LC50
  CC50: 57.7 µM
